In US20240050396A1, “COMPOSITIONS AND METHODS FOR THE TREATMENT OF SOLID TUMORS” (POLYPID LTD., priority 2020, published 2024):
Where two headings read alike, the source gives them in different places.

Legend:
[1] = iv; NDA 020449; cited from earlier work
[2] = test system: 9L GBM cell line tumor in the brain; assay: Syngeneic 9L GBM intra-brain tumor survival (Example 10); format: in vivo, Fischer rats
Procedure: Seventy-five (75) animals were designated for this study. The animals were divided into nine groups as described in Table 6. Group 1 served as untreated control. Groups 2 and 3 served as positive controls and were treated with temozolomide (SOC chemotherapy treatment in GBM patients) by gavage in low (33.5 mg/kg) and high doses (50 mg/kg), respectively. Group 4 (n=10) was treated with Formulation II vehicle at the defect site in the same amount as the Formulation II high amount group. Groups 5-8 (n=10/group) were treated at the excision site Formulation II at 5, 10, 25, or 50 mg/defect site. At study initiation, an incision was made and the calvarium bone of all animals was exposed and 5 mm diameter defect was drilled in the calvarium bone. The dura was cut and the brain was exposed. Each animal was injected with 9L cells (10^5 cells/2 μL/animal) at a depth of ˜1 mm in the brain using a stereotaxic instrument. Following injection of the cells, the incision was sutured. Animals were returned to their cages to recover. Treatment (temozolomide or Formulation II) was set to start five days post cell injection. For Formulation II/Formulation II vehicle treatment, the brain defects in Groups 4-8 were reopened and test articles were administered on top of the site of injection, inside the defect at Day 5. The defects were sealed with bone wax. Animals were returned to their cages to recover. Survival, clinical signs, body weight, and evaluation of cognitive behavior were followed during the study.

[3] = test system: CT-26 subcutaneous colon carcinoma tumors; details: for survival rate / tumor free animals: Day 39; for average tumor volume: after 39 days; for day animals started to gain weight: mouse, in vivo
Excerpt: In the current experiment, the efficacy of local treatment with extended-release formulations according to some embodiments of the invention was compared to systemic treatment with Docetaxel. For that, subcutaneous colon carcinoma tumors were established in female BALB/c mice (7-8 weeks old, weighing ±16-20 gram at study initiation) and after reaching a desired volume (400-600 mm^3), they were resected and ˜90% of their volume was removed followed by administration of the test items. The recurrence rate of the tumors was followed and compared to an untreated control group.
Animals were injected SC with 0.5 million CT-26 cells above the right hip. When the tumor reached the desired volume (400 mm^3) after ˜7 days, animals were divided to five groups, mice were anesthetized, and the tumors were resected. Group 1 was administered with 200 mg of formulation VI containing 1.3% docetaxel (2.6 mg/mouse) to the tumor bed and Group 2 was administered with 200 mg of formulation I containing 0.88% docetaxel ([…]) to the tumor bed. Groups 3 and 4 were treated by repeated i.v injections of docetaxel solution. Group 3 was administered with 20 mg/kg i.v followed by five i.v injections of 10 mg/kg, once every 4 days. Group 4 was administered with 30 mg/kg i.v followed by five IV injections of 15 mg/kg, once every 4 days. Group 5 served as a saline-treated control with ˜100 μL saline administered locally into the tumor bed. The skin incision was then closed using a sterile suture. Post-surgery, the animals were returned to their cages for recovery and observation. Tumor size, clinical signs, and body weights were followed for 39 days.

[4] = Pharmacokinetic profile of locally administered formulations vs i.v docetaxel (Example 11); format: in vivo, Sprague-Dawley female Rats
Excerpt: This study compared the pharmacokinetics profile of docetaxel sustained release composition according to several embodiments of the invention administered to rats. The systemic PK profile of docetaxel released from the local administered formulations was compared to the PK profile of docetaxel administered i.v.
Animals: 30 Sprague-Dawley female Rats weighing+/−200 gram
Experimental Design—three study groups (n=10) were included in this study. Animals were anesthetized and skin above the right hip was cut (1 cm long) and lifted, creating a SC pocket. By making this pocket, the underlying muscle was slightly injured, mimicking the situation of the resection of SC tumor graft in the rat model. Each animal received the treatment as detailed in Table 7. In Groups 1 and 2, Formulations VI and I respectively were administered in the SC pocket on top of the injured muscle. The skin was then sutured. In the i.v. treated group (Group 3), the administration of treatment was given once, immediately after wound closure. After administration, blood samples were collected in the designated time points. Each treatment group was divided to two subgroups (n=5/subgroup) and each subgroup was sampled at the different time points. Blood was collected at 0.5, 1, 2, 4, 8, 12, and 24 hours and at 2, 3, 4, 5, 6, 7, 14, 21, and 30 days post-administration. Clinical signs and animal weights were followed during the study. The concentration of the released docetaxel in the plasma samples was evaluated by a liquid chromatography tandem mass spectrometry (LC-MS/MS) method (lower limit of quantitation [LLOQ]=3 ng/mL). The results were used to determine the PK profile of docetaxel.

[5] = test system: HCT-8 colorectal carcinoma cells; details: cited from earlier work
[6] = test system: KB-8-5 Epidermoid cells; details: cited from earlier work
[7] = test system: KB-P-15 Epidermoid cells; details: cited from earlier work
[8] = test system: KB-D-15 Epidermoid cells; details: cited from earlier work
[9] = test system: KB-V-1 Epidermoid cells; details: cited from earlier work
[10] = test system: KB-PTX/099 Epidermoid cells; details: cited from earlier work
[11] = test system: DLD-1 colorectal carcinoma cells; details: cited from earlier work
[12] = test system: HCT-15 colorectal carcinoma cells; details: cited from earlier work
[13] = test system: A549.EpoB40 non squamous cell lung carcinoma; details: cited from earlier work
[14] = test system: CT-26 cell line; details: CT-26, resistant cell line; cited from earlier work
[15] = test system: NSCLC: A549 cells; details: A549, non-resistant; cited from earlier work
[16] = test system: CRC: HCT-116 cells; details: HCT-116, non-resistant; cited from earlier work
[17] = test system: epidermoid KB-3-1 cells; details: KB-3-1, non-resistant; cited from earlier work
[18] = test system: U87 human GBM cell line tumor xenograft; assay: Resected U87 GBM xenograft, different amounts of Formulation II (Example 9); details: 300 mg/kg intraperitoneal, four times, every 7 days
Procedure: This study was performed to assess the efficacy of the anti-tumor effect of different amounts of the sustained release compositions according to some exemplary embodiments of the invention on U87 human GBM cell line tumor xenograft in nude mice.
Mice were injected subcutaneously (SC) with 3 million U87 cells above the right hip. When the tumor reached the volume of about 400 mm^3 after about 9 days, animals were divided to six groups (n=10/group), the mice were anesthetized, and the tumors were resected. The tumor bed sizes were measured and documented. Groups 1, 2 and 3 were administered 20, 50, or 100 mg of formulation II; 0.87% docetaxel locally on the tumor bed, respectively. Group 4 was administered 100 mg of formulation II vehicle (excipients only without DTX) locally on the tumor bed. Group 5 served as a saline control in which ˜100 μL saline was administered locally into the tumor bed. Group 6 served as positive control and was treated with gemcitabine (300 mg/kg administered as an intraperitoneal injection, four times, every 7 days). The skin incision was then closed using a sterile suture. Post-surgery, the animals were returned to their cages for recovery and observation. Tumor size, clinical signs, and body weights were followed for 43 days.
After tumor resection, the area of the tumor bed was measured. […] The applications of Formulation II were calculated and normalized to amount per 1 cm^2 tumor bed area. The normalized application rates and docetaxel doses are detailed in Table 5.

[19] = test system: LLC1 cell line tumors; assay: Antitumor and anti-metastatic effect on resected LLC1 tumors (Example 13); format: in vivo; details: 6 mg/kg IP twice a week
Procedure: The objective of this study was to assess the efficacy of the antitumor and anti-metastatic effect of different amounts of Formulation II on mouse syngeneic louis lung carcinoma (LLC1) cell line tumors in C57BL mice. The selected cell line (LLC1) is known to spontaneously form metastases in the lungs originating from a primary tumor.
Male C57BL mice, 7-8 weeks old, weighing 18-21 grams were designated for this study. LLC1 tumor cells were injected SC to the back of the mice. When the tumors reached a volume of about 400 mm^3 they were resected (at least 90% of the tumor volume was removed; average area of 0.7 cm^2). The animals were divided into 6 groups (n=10). Groups 1-4 were administered different amounts of Formulation II directly to the tumor bed. Untreated group (Group 5) served as negative control and systemically treated group (Group 6) served as positive control. Five (5) animals served as sham group, they were not injected with tumor cells but underwent the surgical procedure (Group 7). Following treatment, the surgical site was sewed and animals were returned to their cages for recovery. Animals that had tumors larger than 1500 mm^3 were humanly terminated. At termination the number of metastases in the lungs was counted in each animal.
The number of metastases was counted post termination/death. In some cases, the lungs condition didn't allow evaluation of metastases. were too decomposed and therefore the number of metastases in these lungs were not evaluated. The counting discriminated between small metastases (0.1-0.5 mm) and big metastases (>0.5 mm). In case of large number of metastases (>100), it was defined as too numerus to count (TNTC).

[20] = female, Sprague-Dawley, rat, intravenous, plasma docetaxel, single i.v 10 mg/kg
[21] = female, Sprague-Dawley, rat, iv, plasma docetaxel, single i.v 10 mg/kg

CC(=O)O[C@@]12CO[C@@H]1C[C@H](O)[C@@]1(C)C(=O)[C@H](O)C3=C(C)[C@@H](OC(=O)[C@H](O)[C@@H](NC(=O)OC(C)(C)C)c4ccccc4)C[C@@](O)([C@@H](OC(=O)c4ccccc4)[C@H]21)C3(C)C [Taxotere]
maximal tolerated dose (MTD) and non-lethal dose (NLD) reported [1]: 10 mg/kg

Cn1nnc2c(C(N)=O)ncn2c1=O [Temozolomide]
mean survival ([2]; 33.5 mg/kg PO daily for 5 days): 18.8 ± 2.7 days | mean survival ([2]; 50 mg/kg PO daily for 5 days): 21.8 ± 3.3 days | survival rate ([2]; day 23, 33.5 mg/kg, 5 treatment days): 0%

CC(=O)O[C@@]12CO[C@@H]1C[C@H](O)[C@@]1(C)C(=O)[C@H](O)C3=C(C)[C@@H](OC(=O)[C@H](O)[C@@H](NC(=O)OC(C)(C)C)c4ccccc4)C[C@@](O)([C@@H](OC(=O)c4ccccc4)[C@H]21)C3(C)C [docetaxel]
survival rate ([3]; i.v 10 mg/kg every 4 days): 50% | survival rate ([3]; i.v 15 mg/kg every 4 days): 63% | tumor free animals ([3]; i.v 20 mg/kg then five injections of 10 mg/kg every 4 days): 2/8 | tumor free animals ([3]; i.v 30 mg/kg then five injections of 15 mg/kg every 4 days): 3/8 | average tumor volume ([3]; i.v 10 mg/kg every 4 days): 955 mm^3 | average tumor volume ([3]; i.v 15 mg/kg every 4 days): 485 mm^3 | overall tumor free survival ([3]; day 39 post surgery, five cycles of systemic treatment): 25% | overall tumor recurrence ([3]; end of study, extensive systemic treatment): 75% | animals terminated early due to tumor volume that exceeded 1500 mm^3 ([3]; i.v 10 mg/kg every 4 days): 4 | animals terminated early due to tumor volume that exceeded 1500 mm^3 ([3]; i.v 15 mg/kg every 4 days): 2 | day animals started to gain weight ([3]; 10 mg/kg): 20 days | day animals started to gain weight ([3]; 15 mg/kg): 23 days | delayed tumor recurrence after tumor resection (first tumor related mortality) ([3]; systemic treatment arm): 9 days | Cmax of i.v relative to max exposure of Formulation VI ([4]; 881 vs. 80.4 ng/ml): more than 10 fold | AUC(0-t) [4, 20]: 2280 ng·h/mL | Cmax [4, 20]: 881 ng/mL | C0 [4, 21]: 881 ng/mL | Tmax [4, 21]: 0 h | half-life [4, 21]: 23.1 h | Tlast ([4]; plasma docetaxel, single i.v 10 mg/kg): 72 h | IC50 [5]: 3070 nM | IC50 [6]: 8.8 nM | IC50 [7]: 17.6 nM | IC50 [8]: 68.2 nM | IC50 [9]: 468 nM | IC50 [10]: 8.8 nM | IC50 [11]: 16.2 nM | IC50 [12]: 54.1 nM | IC50 [13]: 28.5 nM | IC50 [14]: 260 nM | IC50 [15]: 1.9 nM | IC50 [16]: 5.4 nM | IC50 [17]: 1.1 nM

Nc1ccn([C@@H]2O[C@H](CO)[C@@H](O)C2(F)F)c(=O)n1 [gemcitabine]
animals found dead [18]: 4 | animals terminated due to tumor volume that exceeded 1500 mm^3 [18]: 4 | survival rate ([18]; Day 43): 20% | tumor free animals ([18]; Day 43): 2/10 | average tumor volume ([18]; after 43 days): 780 mm^3

CC(=O)O[C@H]1C(=O)[C@@]2(C)[C@H]([C@H](OC(=O)c3ccccc3)[C@]3(O)C[C@H](OC(=O)[C@H](O)[C@@H](NC(=O)c4ccccc4)c4ccccc4)C(C)=C1C3(C)C)[C@]1(OC(C)=O)CO[C@@H]1C[C@@H]2O [paclitaxel]
IC50 [5]: 3290 nM | IC50 [6]: 70.2 nM | IC50 [7]: 117 nM | IC50 [8]: 566 nM | IC50 [9]: 3200 nM | IC50 [10]: 74.1 nM | IC50 [11]: 32.8 nM | IC50 [12]: 435 nM | IC50 [13]: 128 nM

CC(=O)O[C@H]1C(=O)[C@@]2(C)[C@H]([C@H](OC(=O)c3ccccc3)[C@]3(O)C[C@H](OC(=O)[C@H](O)[C@@H](NC(=O)c4ccccc4)c4ccccc4)C(C)=C1C3(C)C)[C@]1(OC(C)=O)CO[C@@H]1C[C@@H]2O [taxel]
animals that had tumor [19]: 4/10 | average lung weight [19]: 226 ± 114 mg | average tumor volume [19]: 490 mm^3 | average weight at termination lower than weight at t=0 [19]: 4% | metastases free animals (lungs) [19]: 5/10 | animals early terminated due to tumor volume ([19]; day 23): One | animals found dead ([19]; day 25): one
